The term IC50 denotes the concentration at which inhibition is half-maximal. The term inhibition denotes the relative decrease from the control value, in per cent.

One assay concerns the target CDK2/Cyclin A2 (Homo sapiens, UniProt P24941). Kind of assay: Inhibition of CDK2/CyclinA (unknown origin) using ULingt-4E-BP as substrate after 1 hr in presence of ATP by fluorescence assay. The class given is protein-complex assay.
Assay [1] has as its target Cyclin-dependent kinase 5/CDK5 activator 1 (Homo sapiens, UniProt Q00535). Kind of assay: Inhibition of CDK5/p35 (unknown origin) using ULingt-4E-BP as substrate after 1 hr in presence of ATP by fluorescence assay. The class given is protein-complex assay.
Assay [2] concerns the target CDK2/Cyclin A2 (Homo sapiens) (UniProt P24941+P20248). Put plainly: Inhibition of CDK2/CyclinA (unknown origin) using ULingt-4E-BP as substrate at 25 nM after 1 hr in presence of ATP by fluorescence assay relative to control. Type of assay: protein-complex assay.
The target in assay [3] is Cyclin-dependent kinase 5/CDK5 activator 1 (Homo sapiens) (UniProt Q00535+Q15078). Kind of assay: Inhibition of CDK5/p35 (unknown origin) using ULingt-4E-BP as substrate at 25 nM after 1 hr in presence of ATP by fluorescence assay relative to control. Type of assay: protein-complex assay.
For the next assay, the system named is HCT-116. Kind of assay: Growth inhibition of human HCT116 cells after 72 hrs by SRB assay. Type of assay: functional.
Another assay deals with MCF7. Kind of assay: Growth inhibition of human MCF7 cells after 72 hrs by SRB assay. Type of assay: functional.
For assay [4], the target named is Cyclin-dependent kinase 1/cyclin B1 (Homo sapiens, UniProt P06493). Kind of assay: Inhibition of human CDK1/CyclinB. The class given is protein-complex assay.
Another assay concerns the target CDK4/Cyclin D3 (Homo sapiens, UniProt P11802). Kind of assay: Inhibition of human CDK4/CyclinD3. Type of assay: protein-complex assay.
The next assay has as its target CDK6/cyclin D3 (Homo sapiens, UniProt Q00534). Put plainly: Inhibition of human CDK6/CyclinD3. Type of assay: protein-complex assay.
The next assay has as its target CDK7/Cyclin H/MNAT1 (Homo sapiens, UniProt P50613). Kind of assay: Inhibition of human CDK7/CyclinH/MAT1. Type of assay: protein-complex assay.
The next assay concerns the target CDK9/cyclin T1 (Homo sapiens, UniProt P50750). Kind of assay: Inhibition of human CDK9/CyclinT1. Type of assay: protein-complex assay.

Some results are limits rather than exact numbers.

Sequence of Cyclin-dependent kinase 5/CDK5 activator 1 (Homo sapiens) (Q00535 whole entry): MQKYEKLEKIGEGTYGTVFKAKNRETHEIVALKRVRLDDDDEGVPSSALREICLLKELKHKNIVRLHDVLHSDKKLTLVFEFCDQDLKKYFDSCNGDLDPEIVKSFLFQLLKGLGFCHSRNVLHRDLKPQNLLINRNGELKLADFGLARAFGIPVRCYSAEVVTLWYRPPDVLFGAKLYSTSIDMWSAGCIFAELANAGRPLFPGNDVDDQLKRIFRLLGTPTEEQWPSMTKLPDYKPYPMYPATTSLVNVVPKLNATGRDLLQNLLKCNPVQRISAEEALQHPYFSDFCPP
Sequence of Cyclin-dependent kinase 5/CDK5 activator 1 (Homo sapiens) (Q15078 99-307 partner limits assumed): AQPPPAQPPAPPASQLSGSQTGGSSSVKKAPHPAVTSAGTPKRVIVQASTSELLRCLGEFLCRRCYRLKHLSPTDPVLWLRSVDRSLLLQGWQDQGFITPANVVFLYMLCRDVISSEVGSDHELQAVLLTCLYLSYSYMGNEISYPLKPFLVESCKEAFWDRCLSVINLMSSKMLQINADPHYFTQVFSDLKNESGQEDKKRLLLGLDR
Sequence of Cyclin-dependent kinase 5/CDK5 activator 1 (Q00535 whole entry): as the sequence (Q00535 whole entry) above
Sequence of Cyclin-dependent kinase 5/CDK5 activator 1 (Q15078 whole entry, further chain): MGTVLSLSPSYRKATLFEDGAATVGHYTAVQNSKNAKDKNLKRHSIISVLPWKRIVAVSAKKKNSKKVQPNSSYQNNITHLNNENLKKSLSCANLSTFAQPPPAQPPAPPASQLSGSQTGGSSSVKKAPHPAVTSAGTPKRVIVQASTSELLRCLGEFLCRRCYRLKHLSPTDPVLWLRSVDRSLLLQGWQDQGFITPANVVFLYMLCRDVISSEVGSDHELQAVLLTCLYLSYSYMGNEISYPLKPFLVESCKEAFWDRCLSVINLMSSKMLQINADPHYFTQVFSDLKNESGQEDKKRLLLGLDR
Sequence of Cyclin-dependent kinase 1/cyclin B1 (P06493 whole entry): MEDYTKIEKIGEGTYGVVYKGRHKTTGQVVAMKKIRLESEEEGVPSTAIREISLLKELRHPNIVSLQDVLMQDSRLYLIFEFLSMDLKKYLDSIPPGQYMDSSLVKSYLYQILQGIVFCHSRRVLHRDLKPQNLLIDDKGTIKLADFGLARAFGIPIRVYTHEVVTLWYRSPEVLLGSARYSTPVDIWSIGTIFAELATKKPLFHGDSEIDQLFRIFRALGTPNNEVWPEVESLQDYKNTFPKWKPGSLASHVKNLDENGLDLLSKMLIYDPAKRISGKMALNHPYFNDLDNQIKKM
Sequence of Cyclin-dependent kinase 1/cyclin B1 (P14635 whole entry, further chain): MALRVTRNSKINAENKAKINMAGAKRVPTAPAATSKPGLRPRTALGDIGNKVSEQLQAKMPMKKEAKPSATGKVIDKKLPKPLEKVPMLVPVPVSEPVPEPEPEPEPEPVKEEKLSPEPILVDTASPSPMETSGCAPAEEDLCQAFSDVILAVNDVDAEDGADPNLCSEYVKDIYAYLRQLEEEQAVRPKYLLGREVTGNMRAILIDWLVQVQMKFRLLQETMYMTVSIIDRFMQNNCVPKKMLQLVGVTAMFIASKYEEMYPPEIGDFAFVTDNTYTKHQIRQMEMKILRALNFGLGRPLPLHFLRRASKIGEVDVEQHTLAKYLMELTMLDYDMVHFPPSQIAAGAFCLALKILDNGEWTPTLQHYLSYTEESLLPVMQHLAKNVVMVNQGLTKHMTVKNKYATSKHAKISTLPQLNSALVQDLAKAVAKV
Sequence of CDK7/Cyclin H/MNAT1 (P51946 whole entry): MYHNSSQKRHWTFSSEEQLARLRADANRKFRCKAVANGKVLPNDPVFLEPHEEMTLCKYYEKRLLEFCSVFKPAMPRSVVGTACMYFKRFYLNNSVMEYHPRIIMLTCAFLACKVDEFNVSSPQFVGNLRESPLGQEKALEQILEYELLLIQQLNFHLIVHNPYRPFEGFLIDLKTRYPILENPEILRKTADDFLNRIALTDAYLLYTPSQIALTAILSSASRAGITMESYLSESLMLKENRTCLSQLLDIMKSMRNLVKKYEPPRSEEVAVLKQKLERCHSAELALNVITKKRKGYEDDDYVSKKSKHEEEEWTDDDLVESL
Sequence of CDK7/Cyclin H/MNAT1 (P50613 whole entry): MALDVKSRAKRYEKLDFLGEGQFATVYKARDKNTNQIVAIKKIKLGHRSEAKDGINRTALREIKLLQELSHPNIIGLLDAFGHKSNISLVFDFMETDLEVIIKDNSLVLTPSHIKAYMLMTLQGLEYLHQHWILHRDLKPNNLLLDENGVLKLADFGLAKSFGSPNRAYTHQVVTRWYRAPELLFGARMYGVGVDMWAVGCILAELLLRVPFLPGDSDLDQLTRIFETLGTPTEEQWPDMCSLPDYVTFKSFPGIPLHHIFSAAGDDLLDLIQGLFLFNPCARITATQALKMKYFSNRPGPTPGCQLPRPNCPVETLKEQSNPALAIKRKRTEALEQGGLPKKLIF
Sequence of CDK7/Cyclin H/MNAT1 (P51948 whole entry, further chain): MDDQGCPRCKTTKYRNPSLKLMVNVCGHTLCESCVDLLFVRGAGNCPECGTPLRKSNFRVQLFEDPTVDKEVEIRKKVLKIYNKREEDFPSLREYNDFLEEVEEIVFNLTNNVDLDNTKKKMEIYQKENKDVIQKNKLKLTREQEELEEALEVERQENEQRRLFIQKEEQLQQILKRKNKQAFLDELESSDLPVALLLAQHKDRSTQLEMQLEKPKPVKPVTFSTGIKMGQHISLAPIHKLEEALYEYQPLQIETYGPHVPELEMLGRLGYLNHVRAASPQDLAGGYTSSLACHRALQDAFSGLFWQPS
Sequence of CDK4/Cyclin D3 (P11802 whole entry): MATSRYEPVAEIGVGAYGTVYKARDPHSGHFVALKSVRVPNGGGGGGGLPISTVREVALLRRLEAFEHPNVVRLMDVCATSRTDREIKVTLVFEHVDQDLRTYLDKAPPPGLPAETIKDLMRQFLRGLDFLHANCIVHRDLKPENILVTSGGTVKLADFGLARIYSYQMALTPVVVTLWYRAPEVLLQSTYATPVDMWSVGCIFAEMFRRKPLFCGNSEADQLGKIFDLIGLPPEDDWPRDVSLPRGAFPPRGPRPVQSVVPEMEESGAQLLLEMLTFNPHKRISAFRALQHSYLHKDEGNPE
Sequence of CDK4/Cyclin D3 (P30281 whole entry, further chain): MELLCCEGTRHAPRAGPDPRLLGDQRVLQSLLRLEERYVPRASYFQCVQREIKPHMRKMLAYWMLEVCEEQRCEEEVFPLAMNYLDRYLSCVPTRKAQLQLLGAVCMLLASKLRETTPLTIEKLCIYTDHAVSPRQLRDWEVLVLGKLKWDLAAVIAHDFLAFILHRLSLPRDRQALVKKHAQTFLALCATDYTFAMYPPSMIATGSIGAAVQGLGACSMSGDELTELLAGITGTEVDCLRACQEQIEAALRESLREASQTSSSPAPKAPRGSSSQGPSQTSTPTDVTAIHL
Sequence of CDK9/cyclin T1 (O60563 whole entry): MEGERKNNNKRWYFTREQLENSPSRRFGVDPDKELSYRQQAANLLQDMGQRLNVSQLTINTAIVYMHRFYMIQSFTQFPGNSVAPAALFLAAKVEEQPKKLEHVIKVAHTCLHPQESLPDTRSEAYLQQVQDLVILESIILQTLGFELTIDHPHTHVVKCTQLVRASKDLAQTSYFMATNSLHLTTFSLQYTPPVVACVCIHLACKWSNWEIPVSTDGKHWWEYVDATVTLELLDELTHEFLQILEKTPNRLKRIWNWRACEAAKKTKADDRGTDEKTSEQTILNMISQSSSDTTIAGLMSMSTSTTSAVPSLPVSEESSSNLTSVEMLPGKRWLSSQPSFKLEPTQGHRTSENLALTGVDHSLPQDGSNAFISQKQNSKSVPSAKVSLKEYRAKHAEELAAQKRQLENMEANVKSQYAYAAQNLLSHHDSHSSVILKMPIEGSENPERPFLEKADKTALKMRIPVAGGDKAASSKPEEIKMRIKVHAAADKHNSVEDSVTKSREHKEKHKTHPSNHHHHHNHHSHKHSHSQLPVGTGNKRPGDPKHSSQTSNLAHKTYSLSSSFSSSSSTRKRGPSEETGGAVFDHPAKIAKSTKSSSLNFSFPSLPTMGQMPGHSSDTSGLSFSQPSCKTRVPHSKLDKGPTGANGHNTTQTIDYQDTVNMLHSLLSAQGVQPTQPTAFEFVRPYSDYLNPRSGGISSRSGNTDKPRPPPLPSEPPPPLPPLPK
Sequence of CDK9/cyclin T1 (P50750 whole entry): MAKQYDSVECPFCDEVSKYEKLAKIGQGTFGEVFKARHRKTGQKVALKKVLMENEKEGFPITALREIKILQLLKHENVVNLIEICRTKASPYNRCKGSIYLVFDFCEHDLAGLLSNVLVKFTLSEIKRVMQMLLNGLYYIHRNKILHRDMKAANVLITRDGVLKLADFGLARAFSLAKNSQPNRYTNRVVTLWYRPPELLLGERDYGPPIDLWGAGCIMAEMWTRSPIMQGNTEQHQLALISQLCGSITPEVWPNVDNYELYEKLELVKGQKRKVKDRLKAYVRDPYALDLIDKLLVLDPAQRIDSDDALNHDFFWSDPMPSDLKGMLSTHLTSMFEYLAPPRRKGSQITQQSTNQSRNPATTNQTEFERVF
Sequence of CDK6/cyclin D3 (P30281 whole entry): as the sequence (P30281 whole entry, further chain) above
Sequence of CDK6/cyclin D3 (Q00534 whole entry): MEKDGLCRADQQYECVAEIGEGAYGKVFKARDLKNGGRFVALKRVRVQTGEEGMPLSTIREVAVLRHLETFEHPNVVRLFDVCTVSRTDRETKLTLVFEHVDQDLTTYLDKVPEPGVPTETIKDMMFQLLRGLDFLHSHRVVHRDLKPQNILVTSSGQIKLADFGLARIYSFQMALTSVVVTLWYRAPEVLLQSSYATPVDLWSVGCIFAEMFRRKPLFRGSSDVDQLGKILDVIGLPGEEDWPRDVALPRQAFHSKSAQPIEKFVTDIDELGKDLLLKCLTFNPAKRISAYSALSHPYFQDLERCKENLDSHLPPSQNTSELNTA

With `Cc1cccc(C(=O)N[C@H]2C[C@@H](n3cnc4c(NCC5CCCCC5)ncnc43)C2)n1`, the IC50 stood at 49 nM on CDK2/Cyclin A2 and 25 nM in [1].

`COc1cccc(Nc2ncnc3c2ncn3[C@H]2C[C@@H](NC(=O)c3cccc(C)n3)C2)c1`: the values for the IC50 (at CDK2/Cyclin A2; in [1]) were 18 nM and 67 nM, respectively.

Consider `Cc1cccc(C(=O)N[C@H]2C[C@@H](n3cnc4c(NCc5ccc(F)c(F)c5)ncnc43)C2)n1`, for which the IC50 on CDK2/Cyclin A2 turned out to be 29 nM; in [1], 13 nM.

Consider `Cc1cccc(C(=O)N[C@H]2C[C@@H](n3cnc4c(NCc5cccnc5)ncnc43)C2)n1`, for which the IC50 was 16 nM on CDK2/Cyclin A2 and 10 nM in assay [1].

In the case of `Cc1cccc(C(=O)N[C@H]2C[C@@H](n3cnc4c(NC5CCN(C(=O)OC(C)(C)C)CC5)ncnc43)C2)n1`, the IC50 was 95 nM on CDK2/Cyclin A2 and 66 nM in assay [1].

As to `Cc1cccc(C(=O)N[C@H]2C[C@@H](n3cnc4c(N[C@H]5CC[C@H](O)CC5)ncnc43)C2)n1`, the IC50 in assay [1] was more than 500 nM.

For `Cc1cccc(C(=O)N[C@H]2C[C@@H](n3cnc4c(NC5CCNCC5)ncnc43)C2)n1`, the results for the IC50 (at CDK2/Cyclin A2; in [1]) were 379 nM and 162 nM, respectively.

On to `Cc1cccc(C(=O)N[C@H]2C[C@@H](n3cnc4c(NCC5CCN(C(=O)OC(C)(C)C)CC5)ncnc43)C2)n1`, for which the IC50 on CDK2/Cyclin A2 was determined as 376 nM; in assay [1] it was 90 nM.

With `Cc1cccc(C(=O)N[C@H]2C[C@@H](n3cnc4c(NCc5ccc(F)cc5)ncnc43)C2)n1`, the IC50 turned out to be 5.4 nM on CDK2/Cyclin A2 and 30 nM in [1].

Regarding `O=C(N[C@H]1C[C@@H](n2cnc3c(NCc4cccnc4)ncnc32)C1)c1cccc(C(F)(F)F)n1`, the IC50 at CDK2/Cyclin A2 came out at 14 nM; in assay [1] it was 23 nM.

Regarding `Cc1cccc(C(=O)N[C@H]2C[C@@H](n3cnc4c(NCc5ccc(Cl)c(Cl)c5)ncnc43)C2)n1`, the IC50 was 77 nM at CDK2/Cyclin A2 and 34 nM in assay [1].

Take `CC(=O)N[C@H]1CC[C@@H](Nc2ncnc3c2ncn3[C@H]2C[C@@H](NC(=O)c3cccc(C)n3)C2)CC1`: the IC50 on CDK2/Cyclin A2 was determined as 112 nM; in [1], 27 nM.

Regarding `CC(=O)N1CCC(Nc2ncnc3c2ncn3[C@H]2C[C@@H](NC(=O)c3cccc(C)n3)C2)CC1`, the IC50 at CDK2/Cyclin A2 worked out at 474 nM; in assay [1] it was 179 nM.

With `Cc1cccc(C(=O)N[C@H]2C[C@@H](n3cnc4c(NCc5cccc(F)c5)ncnc43)C2)n1`, the figures for the 50% inhibitory concentration (IC50) (on CDK2/Cyclin A2; in assay [1]) were 15 nM and 6 nM, respectively.

Take `O=C(N[C@H]1C[C@@H](n2cnc3c(NCc4cccnc4)ncnc32)C1)c1cccc(Cl)c1Cl`: the inhibition in assay [2] and in assay [3] was less than 50% throughout.

As to `Cc1cccc(C(=O)N[C@H]2C[C@@H](n3cnc4c(NCc5ccc(OC(F)(F)F)cc5)ncnc43)C2)n1`, the inhibition in assay [2] was less than 50%; in assay [3], 54%.

With `Cc1cccc(C(=O)N[C@H]2C[C@@H](n3cnc4c(NCc5ccc(N(C)C)cc5)ncnc43)C2)n1`, the inhibition in [2] is less than 50%; in [3], 53%.

In the case of `Cc1cccc(C(=O)N[C@H]2C[C@@H](n3cnc4c(NCc5ccc(Br)cc5)ncnc43)C2)n1`, the inhibition in assay [2] was 64%; in [3], 80%.

Consider `Cc1cccc(C(=O)N[C@H]2C[C@@H](n3cnc4c(NC5CCN(S(C)(=O)=O)CC5)ncnc43)C2)n1`, for which the inhibition in assay [2] was 62%; in [3], 48%.

Consider `O=C(N[C@H]1C[C@@H](n2cnc3c(NCc4cccnc4)ncnc32)C1)c1cccc(-c2ccccc2)n1`, for which the IC50 at CDK2/Cyclin A2 amounted to 38 nM; in assay [1], 31 nM.

On to `COc1ccc(Nc2ncnc3c2ncn3[C@H]2C[C@@H](NC(=O)c3cccc(C)n3)C2)cc1OC`, for which the IC50 amounted to 54 nM on CDK2/Cyclin A2 and 94 nM in [1].

For the compound `Cc1cccc(C(=O)N[C@H]2C[C@@H](n3cnc4c(NCc5cccc(Br)c5)ncnc43)C2)n1`, the IC50 was 2.1 nM at CDK2/Cyclin A2; 4.8 nM in assay [1]; 24 nM in [4]; 611 nM at CDK4/Cyclin D3; more than 1000 nM on CDK6/cyclin D3; 359 nM on CDK7/Cyclin H/MNAT1. Besides, at CDK9/cyclin T1, the IC50 came to 19 nM. The GI in the assay with HCT-116 came to 2.37 µM; in the assay with MCF7 it was 2.43 µM.

As for `Cc1cccc(C(=O)N[C@H]2C[C@@H](n3cnc4c(NCC5CCNCC5)ncnc43)C2)n1`, the figures for the IC50 (on CDK2/Cyclin A2; in assay [1]) were 48 nM and 71 nM, respectively.

`Cc1cccc(C(=O)N[C@H]2C[C@@H](n3cnc4c(NC5CCNC5)ncnc43)C2)n1` (stereo partly drawn): in assay [1], the IC50 was more than 1000 nM.

Turning to `Cc1cccc(C(=O)N[C@H]2C[C@@H](n3cnc4c(NCc5ccc(C#N)cc5)ncnc43)C2)n1`, the inhibition in assay [2] and in [3] was less than 50% throughout.

For `Cc1cccc(C(=O)N[C@H]2C[C@@H](n3cnc4c(NC5CCN(C(=O)OC(C)(C)C)C5)ncnc43)C2)n1` (stereo partly drawn), the IC50 in [1] was more than 500 nM.

Take `Cc1cccc(C(=O)N[C@H]2C[C@@H](n3cnc4c(Nc5ccncc5)ncnc43)C2)n1`: the IC50 (at CDK2/Cyclin A2; in [1]) was more than 1000 nM in each case.

As to `O=C(N[C@H]1C[C@@H](n2cnc3c(NCc4cccnc4)ncnc32)C1)c1ccncc1`, the inhibition in [2] and in assay [3] was less than 50% in each case.

Take `CC(=O)N[C@H]1CC[C@H](Nc2ncnc3c2ncn3[C@H]2C[C@@H](NC(=O)c3cccc(C)n3)C2)CC1`: the IC50 at CDK2/Cyclin A2 turned out to be 160 nM; in assay [1], 30 nM.

`Cc1cccc(C(=O)N[C@H]2C[C@@H](n3cnc4c(NC5CCN(C)CC5)ncnc43)C2)n1`: the IC50 in assay [1] was more than 1000 nM.

Regarding `Cc1cccc(C(=O)N[C@H]2C[C@@H](n3cnc4c(NCc5cccc(Cl)c5)ncnc43)C2)n1`, the IC50 was 7.2 nM at CDK2/Cyclin A2; 2.3 nM in assay [1]; 23 nM in assay [4]; more than 1000 nM on CDK4/Cyclin D3; more than 1000 nM against CDK6/cyclin D3; 319 nM against CDK7/Cyclin H/MNAT1. Besides, the IC50 on CDK9/cyclin T1 was 27 nM. In addition, the GI is 2.14 µM in the assay on HCT-116 and 2.49 µM in the assay with MCF7.

On to `Cc1cccc(C(=O)N[C@H]2C[C@@H](n3cnc4c(NCc5ccc(C(F)(F)F)cc5)ncnc43)C2)n1`, for which the inhibition is less than 50% in [2] and 58% in assay [3].

Regarding `COc1ccc(Nc2ncnc3c2ncn3[C@H]2C[C@@H](NC(=O)c3cccc(C)n3)C2)cc1`, the inhibition in assay [2] is less than 50%; in assay [3] it was 63%.

In the case of `O=C(N[C@H]1C[C@@H](n2cnc3c(NCc4cccnc4)ncnc32)C1)c1cccnc1`, the inhibition in assay [2] and in assay [3] was less than 50% each time.
